According to patent US8883833B2, “Substituted benzoazole PDE4 inhibitors for treating inflammatory, cardiovascular and CNS disorders” (Decode Genetics EHF, priority 2007, dated 2014):

Columns and labels:
human PDE4D isozyme = human PDE4D isozyme (Homo sapiens, UniProt Q08499); test: IC50 for human PDE4D isozyme (Table 4); format: biochemical; conditions: read-out: IC50 for human PDE4D isozyme, hPDE4D
Method: (§1) In-vitro assay for PDE4 enzymes. The in-vitro activity of PDE4 enzymes and the in-vitro potency of therapeutic agents described in the present invention was measured using a real-time, enzyme-coupled spectrophotometric assay. By using three different coupling enzymes, the product of the PDE4 reaction is coupled to the oxidation of the reduced form β-nicotinamide adenine dinucleotide (NADH), which dissipation can be monitored spectrophotmetrically at […]. Assay description. Buffer A containing 50 mM Tris, pH 8.0, 16 mM MgCl2 and 80 mM KCl is prepared and stored at room temperature. Buffer B containing 50 mM Tris, pH 8.0 is prepared and stored at toom temperature. Stock solutions of the following reagents are prepared in Buffer B and stored at −20° C.: Adenosine-5′-triphosphate (ATP), cyclic adenosine-5′-monophosphate (cAMP), phosphoenolpyruvate (PEP) and NADH. An assay mix is prepared by mixing Buffer A, […] (TCEP), ATP, PEP, NADH, myokinase (MK), pyruvate kinase (PK), lactate dehydroganese (LDH) and PDE4 to a final volume of 20 mL, which is enough for a single 96-well assay plate. Assay mix (180 μL) and test article (10 μL) in 1:1 DMSO/H2O mixture is pre-incubated at room temperature for 10 min. The enzymatic reaction is initiated by addition of cAMP (10 μL). Final concentration of all components in the assay (200 μL/well) are as follows: 10 mM MgCl2, 50 mM KCl, 5 mM TCEP, 2.5% DMSO, 0.4 mM NADH, 1 mM PEP, 0.04 mM ATP, 5 units MK, 1 unit PK, 1 unit LDH and appropriate amount of PDE4. Reaction progress curves are monitored in a plate reader capable of measuring light absorbance at 340 nm. A decrease in light absorbance at 340 nm is due to oxidation of NADH. Positive controls containing no test article and negative controls containing no test article and no cAMP are included on every assay plate. Reaction rates are determined from the slopes of the linear portions of the progress curves. All data is percent normalized with respect to controls and presented as percent inhibition.

human PDE4B isozyme = human PDE4B isozyme (Homo sapiens, UniProt Q07343); test: IC50 for human PDE4B isozyme (Table 5); format: biochemical; conditions: read-out: IC50 for human PDE4B isozyme, hPDE4B
human PDE4B isozyme, sequence (Q07343 whole entry): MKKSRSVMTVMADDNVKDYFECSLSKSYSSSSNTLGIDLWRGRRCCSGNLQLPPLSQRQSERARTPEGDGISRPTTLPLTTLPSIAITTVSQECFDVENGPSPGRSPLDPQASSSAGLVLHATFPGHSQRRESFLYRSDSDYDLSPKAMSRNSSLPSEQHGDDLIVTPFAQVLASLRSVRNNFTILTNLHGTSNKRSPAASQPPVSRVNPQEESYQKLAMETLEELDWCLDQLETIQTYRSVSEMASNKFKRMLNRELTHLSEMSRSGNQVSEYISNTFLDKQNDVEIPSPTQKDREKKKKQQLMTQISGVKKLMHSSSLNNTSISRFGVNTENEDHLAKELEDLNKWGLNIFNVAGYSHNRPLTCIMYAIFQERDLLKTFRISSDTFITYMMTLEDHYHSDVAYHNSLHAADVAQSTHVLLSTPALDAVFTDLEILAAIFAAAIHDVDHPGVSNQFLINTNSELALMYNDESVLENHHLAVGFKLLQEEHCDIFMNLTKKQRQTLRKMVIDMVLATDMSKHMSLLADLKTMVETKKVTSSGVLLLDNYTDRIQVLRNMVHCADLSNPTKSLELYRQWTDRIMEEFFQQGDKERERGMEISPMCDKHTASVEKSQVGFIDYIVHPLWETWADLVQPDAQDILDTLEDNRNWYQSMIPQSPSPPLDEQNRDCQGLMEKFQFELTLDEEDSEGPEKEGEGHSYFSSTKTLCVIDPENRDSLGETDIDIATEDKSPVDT
Method: as §1

human PDE4D isozyme, sequence (Q08499 whole entry): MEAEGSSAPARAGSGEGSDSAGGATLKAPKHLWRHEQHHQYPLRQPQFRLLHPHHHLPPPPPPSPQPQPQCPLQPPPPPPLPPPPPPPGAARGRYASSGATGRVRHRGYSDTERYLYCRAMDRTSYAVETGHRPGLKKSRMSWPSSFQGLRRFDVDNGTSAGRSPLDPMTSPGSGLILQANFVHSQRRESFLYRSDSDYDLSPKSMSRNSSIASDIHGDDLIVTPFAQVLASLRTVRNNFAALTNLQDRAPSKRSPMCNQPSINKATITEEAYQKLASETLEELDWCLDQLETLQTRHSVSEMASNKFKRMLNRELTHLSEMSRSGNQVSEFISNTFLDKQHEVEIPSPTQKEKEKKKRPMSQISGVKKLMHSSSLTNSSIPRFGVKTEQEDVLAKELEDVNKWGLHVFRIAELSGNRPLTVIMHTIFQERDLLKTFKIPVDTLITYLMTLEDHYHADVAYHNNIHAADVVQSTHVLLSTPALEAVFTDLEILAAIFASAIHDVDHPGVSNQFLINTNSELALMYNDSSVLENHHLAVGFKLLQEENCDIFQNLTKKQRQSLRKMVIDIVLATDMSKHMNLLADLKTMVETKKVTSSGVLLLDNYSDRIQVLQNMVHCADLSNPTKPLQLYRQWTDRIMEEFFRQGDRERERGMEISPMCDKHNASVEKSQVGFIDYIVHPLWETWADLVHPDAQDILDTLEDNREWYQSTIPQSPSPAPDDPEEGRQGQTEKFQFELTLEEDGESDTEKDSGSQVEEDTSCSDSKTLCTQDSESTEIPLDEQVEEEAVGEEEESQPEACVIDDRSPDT

| SMILES | IC50 (human PDE4D isozyme) [µM] | IC50 (human PDE4B isozyme) [µM] |
| --- | --- | --- |
| Nc1nc2c(-c3ccc4c(c3)OCO4)cc(Cc3ccc(F)cc3)cc2s1 [BA-04, 4-Benzo[1,3]dioxol-5-yl-6-(4-fluoro-benzyl)-benzothiazol-2-ylamine] | < 5 | < 5 |
| NC(=O)N1CCN(Cc2cc3scnc3c(-c3cccc(Cl)c3)c2F)CC1 [BA-31, 4-[4-(3-Chloro-phenyl)-5-fluoro-benzothiazol-6-ylmethyl]-piperazine-1-carboxylic acid amide] | < 5 | < 5 |
| CSc1cccc(-c2cc(Cn3cccn3)cc3sc(N)nc23)c1 [BA-14, 4-(3-Methylsulfanyl-phenyl)-6-pyrazol-1-ylmethyl-benzothiazol-2-ylamine] | < 5 | < 5 |
| Nc1nc2c(-c3ccc4c(c3)OCO4)nc(Cc3ccc(F)cc3)nc2s1 [BA-11, 7-Benzo[1,3]dioxol-5-yl-5-(4-fluorobenzyl)-thiazolo[5,4-d]pyrimidin-2-ylamine] | < 5 | < 5 |
| Nc1ccc(Cc2cc(-c3cccc(Cl)c3)c3nc(N)sc3c2)cc1 [BA-26, 6-(4-Amino-benzyl)-4-(3-chloro-phenyl)-benzothiazol-2-ylamine] | < 5 | < 5 |
| Nc1nc2c(-c3cccc(Br)c3)cc(Cc3ccc(F)cc3)cc2s1 [BA-13, 4-(3-bromophenyl)-6-(4-fluorobenzyl)-1,3-benzothiazol-2-amine] | < 5 | < 5 |
| CC(=O)c1cccc(-c2cc(Cn3cccn3)cc3sc(N)nc23)c1 [BA-12, 1-[3-(2-Amino-6-pyrazol-1-ylmethyl-benzothiazol-4-yl)-phenyl]-ethanone] | < 5 | < 5 |
| Nc1nc2c(-c3ccc4nonc4c3)cc(Cc3ccc(F)cc3)cc2s1 [BA-03, 4-Benzol[1,2,5]oxadiazol-5-yl-6-(4-fluoro-benzyl)-benzothiazol-2-yl amine] | < 5 | < 5 |
| O=C1CNCCN1Cc1cc2scnc2c(-c2cccc(Cl)c2)c1F [BA-73, 1-[4-(3-Chloro-phenyl)-5-fluoro-benzothiazol-6-ylmethyl]-piperazin-2-one] | < 5 | < 5 |
| Nc1nc2c(-c3cccc([N+](=O)[O-])c3)cc(Cn3cccn3)cc2s1 [BA-10, 4-(3-Nitro-phenyl)-6-pyrazol-1-ylmethyl-benzothiazol-2-ylamine] | < 5 | < 5 |
| CCNC(=O)N1CCN(Cc2cc3scnc3c(-c3cccc(Cl)c3)c2F)CC1 [BA-52, 4-[4-(3-chloro-phenyl)-5-fluoro-benzothiazol-6-ylmethyl]-piperazine-1-carboxylic acid ethylamide] | < 5 | 20 to 40 |
| Cc1nc2c(-c3cccc(Cl)c3)cc(Cc3ccc(N)nc3)cc2s1 [BA-66, 5-[4-(3-chloro-phenyl)-2-methyl-benzothiazol-6-ylmethyl]-pyridin-2-ylamine] | < 5 |  |
| NC(=O)Nc1ccc(Cc2cc(-c3cccc(Cl)c3)c3ncsc3c2)cc1 [BA-28, {4-[4-(3-Chloro-phenyl)-benzothiazol-6-ylmethyl]-phenyl}-urea] | < 5 | < 5 |
| CCNC(=O)N1CCN(Cc2cc3scnc3c(-c3cccc(Cl)c3)c2F)C(=O)C1 [BA-72, 4-[4-(3-Chloro-phenyl)-5-fluoro-benzothiazol-6-ylmethyl]-3-oxo-piperazine-1-carboxylic acid ethylamide] | < 5 | < 5 |
| COc1ccc(Cc2cc3scnc3c(-c3cccc(Cl)c3)c2F)cn1 [BA-38, 4-(3-chloro-phenyl)-5-fluoro-6-(6-methoxy-pyridin-3-ylmethyl)-benzothiazole] | < 5 | < 5 |
| Cc1nc2c(-c3cccc(Cl)c3)cc(Cc3ccc(NC(N)=O)cc3)cc2o1 [BA-24, N-(4-{[4-(3-chlorophenyl)-2-methyl-1,3-benzoxazol-6-yl]methyl}phenyl)urea] | < 5 | < 5 |
| CS(=O)(=O)Nc1ccc(Cc2cc(-c3cccc(Cl)c3)c3nc(N)oc3c2)cc1 [BA-20, N-{4-[2-Amino-4-(3-chloro-phenyl)-benzooxazol-6-ylmethyl]-phenyl}-methanesulfonamide] | < 5 | < 5 |
| Cc1nc2c(-c3cccc(Cl)c3)cc(Cc3ccc(N)cc3)cc2o1 [BA-22, 4-{[4-(3-chlorophenyl)-2-methyl-1,3-benzoxazol-6-yl]methyl}aniline] | < 5 | < 5 |
| Fc1c(CN2CCOCC2)cc2scnc2c1-c1cccc(Cl)c1 [BA-43, 4-(3-Chloro-phenyl)-5-fluoro-6-morpholin-4-ylmethyl-benzothiazole] | < 5 | < 5 |
| CN1CCN(Cc2cc3scnc3c(-c3cccc(Cl)c3)c2F)CC1 [BA-50, 4-(3-Chloro-phenyl)-5-fluoro-6-(4-methyl-piperazin-1-ylmethyl)-benzothiazole] | < 5 |  |

Other lines, results leading:

| IC50 (human PDE4D isozyme) [µM] | IC50 (human PDE4B isozyme) [µM] | SMILES |
| --- | --- | --- |
| < 5 | < 5 | Nc1nc2c(-c3cccc([N+](=O)[O-])c3)cc(Cn3ccnc3)cc2s1 [BA-02, 6-imidazol-1-ylmethyl-4-(3-nitro-phenyl)-benzothiazol-2-ylamine] |
| < 5 | < 5 | Nc1ccc(Cc2cc3sc(N)nc3c(-c3cccc([N+](=O)[O-])c3)c2O)cc1 [BA-15, 2-Amino-6-(4-amino-benzyl)-4-(3-nitro-phenyl)-benzothiazol-5-ol] |
| < 5 | < 5 | Nc1ccc(Cc2cc(-c3cccc(Cl)c3)c3nc(N)oc3c2)cc1 [BA-32, 6-(4-aminobenzyl)-4-(3-chlorophenyl)-1,3-benzoxazol-2-amine] |
| < 5 | 5 to 20 | NC(=O)NC1CCN(Cc2cc3scnc3c(-c3cccc(Cl)c3)c2F)CC1 [BA-46, [1-[4-(3-Chloro-phenyl)-5-fluoro-benzothiazol-6-ylmethyl]-piperidin-4-yl]-urea] |
| < 5 | < 5 | CCOC(=O)N1CCN(Cc2cc3scnc3c(-c3cccc(Cl)c3)c2F)CC1 [BA-49, 4-[4-(3-Chloro-phenyl)-5-fluoro-benzothiazol-6-ylmethyl]-piperazine-1-carboxylic acid ethyl ester] |
| < 5 | 5 to 20 | CCOC(=O)NC1CCN(Cc2cc3scnc3c(-c3cccc(Cl)c3)c2F)CC1 [BA-45, {1-[4-(3-Chloro-phenyl)-5-fluoro-benzothiazol-6-ylmethyl]-piperidin-4-yl}-carbamic acid ethyl ester] |
| < 5 | 20 to 40 | Clc1cccc(-c2cc(Cc3ccc(N4CCCC4)nc3)cc3scnc23)c1 [BA-59, 4-(3-chloro-phenyl)-6-(6-pyrrolidin-1-yl-pyridin-3-ylmethyl)-benzothiazole] |
| < 5 | 5 to 20 | CS(=O)(=O)Nc1ccc(Cc2cc(-c3cccc(Cl)c3)c3nc(N)sc3c2)cc1 [BA-18, N-{4-[2-Amino-4-(3-chloro-phenyl)-benzothiazol-6-ylmethyl]-phenyl}-methanesulfonamide] |
| < 5 | < 5 | CCNC(=O)Nc1ccc(Cc2cc3scnc3c(-c3cccc(Cl)c3)c2F)cc1 [BA-30, 1-{4-[4-(3-chloro-phenyl)-5-fluoro-benzothiazol-6-ylmethyl]-phenyl}-3-ethyl-urea] |
| < 5 |  | Fc1c(Cc2ccc(N3CCCC3)nc2)cc2scnc2c1-c1cccc(Cl)c1 [BA-57, 4-(3-chloro-phenyl)-5-fluoro-6-(6-pyrrolidin-1-yl-pyridin-3-ylmethyl)-benzothiazole] |
| < 5 | < 5 | NC(=O)Nc1ccc(Cc2cc(-c3cccc(Cl)c3)c3nc(N)sc3c2)cc1 [BA-27, {4-[2-Amino-4-(3-chloro-phenyl)-benzothiazol-6-ylmethyl]-phenyl}-urea] |
| < 5 | < 5 | CN(C)c1ccc(Cc2cc3scnc3c(-c3cccc(Cl)c3)c2F)cn1 [BA-55, {5-[4-(3-chloro-phenyl)-5-fluoro-benzothiazol-6-ylmethyl]-pyridin-2-yl}-dimethyl-amine] |
| < 5 | < 5 | CN(C)CC(=O)Nc1ccc(Cc2cc3scnc3c(-c3cccc(Cl)c3)c2F)cn1 [BA-64, N-{5-[4-(3-chloro-phenyl)-5-fluoro-benzothiazol-6-ylmethyl]-pyridin-2-yl}-2-dimethylamino-acetamide] |
| < 5 | < 5 | Nc1ccc(Cc2cc3sc(N)nc3c(-c3cccc(Cl)c3)c2F)cc1 [BA-16, 6-(4-amino-benzyl)-4-(3-chloro-phenyl)-5-fluoro-benzothiazol-2-ylamine] |
| < 5 | < 5 | NC(=O)Nc1ccc(Cc2cc3sc(N)nc3c(-c3cccc(Cl)c3)c2F)cc1 [BA-21, {4-[2-amino-4-(3-chloro-phenyl)-5-fluoro-benzothiazol-6-ylmethyl]-phenyl}-urea] |
